Article PMC3973950, “Synthesis of 5-arylidine amino-1,3,4-thiadiazol-2-[(N-substituted benzyol)]sulphonamides endowed with potent antioxidants and anticancer activity induces growth inhibition in HEK293, BT474 and NCI-H226 cells” (Medicinal Chemistry Research, 2013)
One block for each compound: values may come before it.

Assays:
[1] = In vitro cytotoxicity by MTT assay, HEK 293; assay type: cell-based, human; conditions: human, HEK 293 cells, read-out: % cytotoxicity (100 − % cell survival) of HEK 293 cell line
Summary of the method: (§1)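 After 72 h of compound exposure at 37 °C in 5 % CO2, MTT was added for 4 h and the propanol-solubilised formazan was read at 490 nm. Monolayers (~10,000 cells/well, RPMI-1640 plus 10 % newborn calf serum) had been allowed to form for 24 h beforehand.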

[2] = system: HEK 293, M468 and NCI-H226; assay: In vitro cytotoxicity by MTT assay, summary over all cell lines; assay type: cell-based; conditions: on all cell lines
Method: The cancer cell line cultures of HEK 293 ([…]), BT474 (breast cancer cell line) and NCI-H226 (lung cancer) were obtained from Pasteur Institute of India, Coonoor, India, and were cultured in RPMI-1640 and 10 % heat-[…] New born calf serum with antibiotics [penicillin ([…]), streptomycin (100 μg/mL) and amphotericin B (25 μg/mL)]. The cells were maintained at 37 °C in a humidified atmosphere with 5 % CO2 and were subcultured twice a week.
The monolayer cell culture (100 μL) was trypsinized, and the cell count was adjusted to […] using medium containing 10 % new born calf serum. To each well of the 96-well microtitre plate, the diluted cell suspension (approximately 10,000 cells) (0.1 mL) was added and kept for 24 h in incubator at 37 °C in 5 % CO2 atmosphere for cell monolayer formation. After 24 h, when a partial monolayer was formed at the bottom of the well, the supernatant was flicked off, the monolayer was washed once, and different drugs, i.e. synthesized compounds (100 μL), were added to the cells in microtitre plates. The plates were then incubated at 37 °C for 3 days in 5 % CO2 atmosphere, and microscopic examination was carried out and observations recorded every 24 h. After 72 h, the sample solution in the wells was flicked off; MTT dye ([…]) was added to each well; plates were gently shaken and incubated for 4 h at 37 °C in 5 % CO2 incubator. The supernatant was removed and propanol (50 μL) was added; the plates were gently shaken to solubilize the formed formazan. The absorbance was measured using a microplate reader at a wavelength of 490 nm (Edmondson et al., [1988]; Prasad et al., [2005]; Chiruvella et al., [2008]; Chang et al., [2007]).

[3] = system: NCI-H226 (lung cancer cell line); assay: In vitro cytotoxicity by MTT assay, NCI-H226; assay type: cell-based; conditions: 72 h
Summary of the method: as §1

[4] = In vitro cytotoxicity by MTT assay, NCI-H226; assay type: cell-based; conditions: human, NCI-H226 lung cancer cells, 0.015 μM, read-out: % Cytotoxicity (100 − % cell survival) of NCI-H226 cell line
Summary of the method: as §1

[5] = system: BT474 (breast cancer cell line); assay: In vitro cytotoxicity by MTT assay, BT474; assay type: cell-based; conditions: 72 h
Summary of the method: as §1

[6] = system: HEK 293 (human epidermal kidney cell line); assay: In vitro cytotoxicity by MTT assay, HEK 293; assay type: cell-based; conditions: 72 h
Summary of the method: as §1

[7] = system: root meristem cells of Allium cepa; assay: In vitro antimitotic activity and cytogenetic analysis, Allium cepa meristem root model; assay type: cell-based; conditions: compounds 1 mg/mL, PC (EMS) 2 × 10^−2 M
Method: Small bulbs (1.5–2.0 cm in diameter) of the common onion, A. cepa (2n = 16), were purchased from vendor at a local market. Prior to initiating the test, the outer scales of the bulbs and the dry bottom plate were removed without destroying the root primordia. The roots of A. cepa were grown in distilled water in Erlenmeyer flasks (200 mL capacity) under laboratory conditions (dark 24 °C). For each synthesized compound sample, after reaching a length of 3 cm (±0.5 cm), a series of six bulbs were placed in distilled water (pH 7.3) for 48 h and then onion roots were treated with the synthesized compound at 1 mg/mL concentrations of each tested compound. The test tubes were kept in an incubator at 22 ± 1 °C, and the test samples were changed daily at the same time. Several of the newly formed root tips were then cut from each bulb and examined for any visible morphological abnormalities. The bulbs with satisfactory root lengths (2–2.5 cm) were used in the study, while those with exceptionally long or short roots were discarded (on average 2–3 bulbs). Therefore, individual sets of five bulbs were used for each extract sample.
Distilled water (pH 7.3) was used as a negative control, and EMS (2 × 10^−2 M) used as a positive control mutagen (Fiskesjo, [1993], [1997]). After 24 h of exposure, several root tips were removed from the bulbs, fixed in 3:1 (v/v) ethanol (90 %)/glacial acetic acid (45 %) and stored overnight at 4 °C. The next day, they were placed in 70 % (v/v) aqueous alcohol and refrigerated until used. Allium roots were softened by digesting with HCl and rinsed the roots in water. After removing the water from the third rinse, the roots were covered with the orcein acetate stain. The roots were incubated in the stain for 12 min. During this time, the very tip of the root begins to turn red as the DNA stains the numerous small actively dividing cells at the tip. A root was transferred to the centre of a clean microscope slide, and a drop of water was added. Using a razor blade most of the unstained part of the root was cut off and discarded. The root tip was covered with a cover slip and then carefully pushed down on the cover slide with the wooden end of a dissecting probe. […] The root tip should spread out to a diameter about 0.5–1 cm. Five slides were prepared per bulb.
The following parameters were used for the determination of cytotoxicity and genotoxicity: • (i) the mitotic index (MI) was calculated as the ratio between the number of mitotic cells and the total number of cells scored and expressed as percentage using following formula as per standard procedures. Mitoticindex=Numberofdividingcells/Totalnumberofcells×100 • (ii) Chromatin aberrations (stickiness, breaks and polar deviation) were used as end points for the determination of cytogenetic effects, and micronuclei (MNC) were scored in interphase cells per 1,000 cells (‰ MNC) (Freshney, [2000]). • (iii) The most frequent abnormalities are shown in microphotographs. After 72 h of exposure to the test samples, the root lengths were measured and used as an index of general toxicity. The results for mitotic index and root length are expressed as percentage of the negative and positive controls. Visible morphological modifications, such as changes in root consistency and colour as well as the presence of swelling (c-tumours), hooks or twists in the roots, were also observed.

Compound: Nc1nnc(S(=O)(=O)NC(=O)c2ccccc2)s1 [Compound 4a, 5-amino-1,3,4-thiadiazol-2-[N-(benzoyl)]sulphonamide]
cytotoxicity at 72 h, 0.005 µM ([1]; 0.005 μM): 25.6%
cytotoxicity at 72 h, 0.015 µM ([1]; 0.015 μM): 25.8%
cytotoxicity at 72 h, 0.045 µM ([1]; 0.045 μM): 26.6%
cytotoxicity at 72 h, 0.13 µM ([1]; 0.13 μM): 26.9%
cytotoxicity at 72 h, 0.41 µM ([1]; 0.41 μM): 28.2%
cytotoxicity at 72 h, 1.23 µM ([1]; 1.23 μM): 28.5%
cytotoxicity at 72 h, 3.7 µM ([1]; 3.7 μM): 28.9%
cytotoxicity at 72 h, 11.11 µM ([1]; 11.11 μM): 29.5%
cytotoxicity at 72 h, 33.33 µM ([1]; 33.33 μM): 31.7%
cytotoxicity at 72 h, 100 µM ([1]; 100 μM): 33%
cytotoxic activity compared with all synthesized compounds [2]: less activity
cytotoxicity at 0.005 µM ([3]; Homo sapiens, NCI-H226, 0.005 μM, read-out: % Cytotoxicity (100 − % cell survival) of NCI-H226 cell line): 22.4%
cytotoxicity at 0.045 µM ([3]; Homo sapiens, NCI-H226, 0.045 μM, read-out: % Cytotoxicity (100 − % cell survival) of NCI-H226 cell line): 24.2%
cytotoxicity at 0.13 µM ([3]; Homo sapiens, NCI-H226, 0.13 μM, read-out: % Cytotoxicity (100 − % cell survival) of NCI-H226 cell line): 24.9%
cytotoxicity at 0.41 µM ([3]; Homo sapiens, NCI-H226, 0.41 μM, read-out: % Cytotoxicity (100 − % cell survival) of NCI-H226 cell line): 25.5%
cytotoxicity at 1.23 µM ([3]; Homo sapiens, NCI-H226, 1.23 μM, read-out: % Cytotoxicity (100 − % cell survival) of NCI-H226 cell line): 26.1%
cytotoxicity at 3.7 µM ([3]; Homo sapiens, NCI-H226, 3.7 μM, read-out: % Cytotoxicity (100 − % cell survival) of NCI-H226 cell line): 26.6%
cytotoxicity at 11.11 µM ([3]; Homo sapiens, NCI-H226, 11.11 μM, read-out: % Cytotoxicity (100 − % cell survival) of NCI-H226 cell line): 27.1%
cytotoxicity at 33.33 µM ([3]; Homo sapiens, NCI-H226, 33.33 μM, read-out: % Cytotoxicity (100 − % cell survival) of NCI-H226 cell line): 27.5%
cytotoxicity at 100 µM ([3]; Homo sapiens, NCI-H226, 100 μM, read-out: % Cytotoxicity (100 − % cell survival) of NCI-H226 cell line): 27.9%
cytotoxicity at 72 h, 0.015 µM [4]: 23.1%
cytotoxicity at 0.005 µM ([5]; Homo sapiens, BT-474, 0.005 μM, read-out: % cytotoxicity (100 − % cell survival) of BT474 cell line): 20.1%
cytotoxicity at 0.015 µM ([5]; Homo sapiens, BT-474, 0.015 μM, read-out: % cytotoxicity (100 − % cell survival) of BT474 cell line): 22.6%
cytotoxicity at 0.045 µM ([5]; Homo sapiens, BT-474, 0.045 μM, read-out: % cytotoxicity (100 − % cell survival) of BT474 cell line): 23.1%
cytotoxicity at 0.13 µM ([5]; Homo sapiens, BT-474, 0.13 μM, read-out: % cytotoxicity (100 − % cell survival) of BT474 cell line): 24.6%
cytotoxicity at 0.41 µM ([5]; Homo sapiens, BT-474, 0.41 μM, read-out: % cytotoxicity (100 − % cell survival) of BT474 cell line): 25.4%
cytotoxicity at 1.23 µM ([5]; Homo sapiens, BT-474, 1.23 μM, read-out: % cytotoxicity (100 − % cell survival) of BT474 cell line): 25.9%
cytotoxicity at 3.7 µM ([5]; Homo sapiens, BT-474, 3.7 μM, read-out: % cytotoxicity (100 − % cell survival) of BT474 cell line): 26.3%
cytotoxicity at 11.11 µM ([5]; Homo sapiens, BT-474, 11.11 μM, read-out: % cytotoxicity (100 − % cell survival) of BT474 cell line): 27.4%
cytotoxicity at 33.33 µM ([5]; Homo sapiens, BT-474, 33.33 μM, read-out: % cytotoxicity (100 − % cell survival) of BT474 cell line): 28.1%
cytotoxicity at 100 µM ([5]; Homo sapiens, BT-474, 100 μM, read-out: % cytotoxicity (100 − % cell survival) of BT474 cell line): 28.7%

Aberrant cells (%) ± SEM [7]: 22.41 ± 6.18%
Chromosome breaks (%) ± SEM [7]: 7.33 ± 2.06%
Polar deviations (%) ± SEM [7]: 6.57 ± 1.33%
Stickiness (%) ± SEM [7]: 7.35 ± 2.06%
Compound: N-({5-[(3-Nitrobenzylidene)amino]-1,3,4-thiadiazol-2-yl}sulfonyl)benzamide [Compound 9i]
% cytotoxicity (100 − % cell survival) of HEK 293 cell line ([6]; 0.005 μM): 33.04%
% cytotoxicity (100 − % cell survival) of HEK 293 cell line ([6]; 0.015 μM): 34.46%
% cytotoxicity (100 − % cell survival) of HEK 293 cell line ([6]; 0.045 μM): 35.12%
% cytotoxicity (100 − % cell survival) of HEK 293 cell line ([6]; 0.13 μM): 36.32%
% cytotoxicity (100 − % cell survival) of HEK 293 cell line ([6]; 0.41 μM): 36.69%
% cytotoxicity (100 − % cell survival) of HEK 293 cell line ([6]; 1.23 μM): 37.03%
% cytotoxicity (100 − % cell survival) of HEK 293 cell line ([6]; 3.7 μM): 37.19%
% cytotoxicity (100 − % cell survival) of HEK 293 cell line ([6]; 11.11 μM): 38.84%
% cytotoxicity (100 − % cell survival) of HEK 293 cell line ([6]; 33.33 μM): 39.51%
% cytotoxicity (100 − % cell survival) of HEK 293 cell line ([6]; 100 μM): 43.48%
% Cytotoxicity (100 − % cell survival) of NCI-H226 cell line ([3]; 0.005 μM): 33.61%
% Cytotoxicity (100 − % cell survival) of NCI-H226 cell line ([3]; 0.015 μM): 33.92%
% Cytotoxicity (100 − % cell survival) of NCI-H226 cell line ([3]; 0.045 μM): 33.97%
% Cytotoxicity (100 − % cell survival) of NCI-H226 cell line ([3]; 0.13 μM): 34.14%
% Cytotoxicity (100 − % cell survival) of NCI-H226 cell line ([3]; 0.41 μM): 34.59%
% Cytotoxicity (100 − % cell survival) of NCI-H226 cell line ([3]; 1.23 μM): 34.95%
% Cytotoxicity (100 − % cell survival) of NCI-H226 cell line ([3]; 3.7 μM): 35.27%
% Cytotoxicity (100 − % cell survival) of NCI-H226 cell line ([3]; 11.11 μM): 36.72%
% Cytotoxicity (100 − % cell survival) of NCI-H226 cell line ([3]; 33.33 μM): 38.57%
% Cytotoxicity (100 − % cell survival) of NCI-H226 cell line ([3]; 100 μM): 38.66%
MNC (‰) ± SEM (micronuclei per 1,000 cells) [7]: 0.61 ± 0.15 ‰
MI (%) ± SEM (mitotic index) ([7]; lower MI = higher activity, negative control 6.22): 3.07 ± 0.22%
% cytotoxicity (100 − % cell survival) of BT474 cell line ([5]; 0.005 μM): 31.52%
% cytotoxicity (100 − % cell survival) of BT474 cell line ([5]; 0.015 μM): 33.31%
% cytotoxicity (100 − % cell survival) of BT474 cell line ([5]; 0.045 μM): 34.59%
% cytotoxicity (100 − % cell survival) of BT474 cell line ([5]; 0.13 μM): 35.42%
% cytotoxicity (100 − % cell survival) of BT474 cell line ([5]; 0.41 μM): 36.12%
% cytotoxicity (100 − % cell survival) of BT474 cell line ([5]; 1.23 μM): 36.73%
% cytotoxicity (100 − % cell survival) of BT474 cell line ([5]; 3.7 μM): 37.56%
% cytotoxicity (100 − % cell survival) of BT474 cell line ([5]; 11.11 μM): 39.19%
% cytotoxicity (100 − % cell survival) of BT474 cell line ([5]; 33.33 μM): 40.50%
% cytotoxicity (100 − % cell survival) of BT474 cell line ([5]; 100 μM): 41.29%
